Results published in article PMC10644720 (Frontiers in Pharmacology, 2023).
Where two headings read alike, the source gives them in different places.

How the values were obtained:
GPVI signaling = experiment: Western blot of ITAM and MAPK signaling molecules; assay type: cell-based, human; conditions: convulxin-induced
Experimental: A lysis buffer (5x, PBS, PH7.4, comprising 2.5% sodium dodecyl sulfate [SDS], 5% deoxycholate, 5% vol/vol Triton X-100, phosphatase and proteinase inhibitors cocktails) was used to lyse the cells on ice for 30 min. The platelet lysate was centrifuged at 12,000 rpm for 10 min at 4°C. The supernatant was added to 5× protein loading buffer and boiled. The proteins were separated by 10% SDS-PAGE gels and transferred to membranes. The PVDF membranes were blocked in EveryBlot Blocking buffer (Cat No. 12010020; Bio-Rad, Hercules, CA, United States) for 10 min. […] The intensity of the target bands was assessed by ImageJ software.

[1] = Coagulation function in mice; assay type: in vivo, C57BL/6 mice; conditions: 30 min after administration
Experimental: Then, 30 min after administration, blood was removed from the eyes and anticoagulated with 3.8% sodium citrate. The plasma was obtained by centrifugation at 3,000 rpm for 10 min at room temperature, and coagulation-related indexes were measured using an STA Compact Max (Diagnostica Stago, Inc. Asnières-sur-Seine, France).

human washed platelets = experiment: Platelet aggregation assay (Chrono-Log aggregometer); assay type: cell-based; conditions: for IC50: Homo sapiens, Platelet, 10 min, 10 min incubation at 37°C
Experimental: Blood was collected from a median cubital vein using a 3.8% sodium citrate anticoagulation tube with a 1:9 dilution ratio. The platelets were washed using a previously described method with slight modification ([Babur et al., 2020]; [Uphaus et al., 2022]). The blood was centrifuged at room temperature at 300 × g for 10 min to separate platelet-rich plasma (PRP). PRP was added to 50 ng/mL of PGE1 and 5 mM EDTA, centrifuged at 2,000 × g for 2 min at room temperature, and the platelet precipitate was obtained after discarding the supernatant. The modified HEPES-Tyrode’s buffer (20 mM 4-(2-Hydroxyethyl)-1-piperazine ethane sulfonic acid [HEPES], pH 7.3, 129 mM NaCl, 2.9 mM KCl, 12 mM NaHCO3, 0.34 mM Na2HPO4, 20 mM HEPES, 5 mM D-Glucose, 1 mM MgCl2) was used to resuspend the platelets, added with 50 ng/mL PGE1 and 5 mM EDTA, and the platelets were washed by centrifugation at 2,000 ×g for 2 min at room temperature. The washed platelets (WP) were resuspended using modified HEPES-Tyrode’s buffer, and the platelet count was adjusted to 150–200 × 10^9/L.
Platelet aggregation and ATP release were detected using the Chrono-Log platelet aggregation instrument (Chrono-Log Corp., Havertown, Pennsylvania, United States), as previously reported ([Babur et al., 2020]). […] In addition, 1 mM CaCl2 and different platelet activators (ADP, collagen, and thrombin; Chrono-Log Corp., Havertown, Pennsylvania, United States; U46619, from Sigma, St. Louis, MO, United States; convulxin, sc-202554 from Santa Cruz Biotechnology, Santa Cruz, CA, United States) were added to each group before the start of the aggregation assay. For the ATP release experiments, the platelets were incubated with 50 ng/mL luciferin and D-luciferase (Cat No. 395; Chrono-Log Corp.) for 2 min before the addition of activators. The platelet aggregation and ATP release curves were traced during experiments.

O=c1cc(-c2ccc(O)c(O)c2)oc2cc(O)cc(O)c12 [Luteolin]
phosphorylation of MAPK and ITAM (GPVI signaling; Erk 1/2, SAPK/JNK, p38 MAPK): significant inhibitory effect
phosphorylation of Src, Syk, PLCγ2, Akt and GSK-3β (GPVI signaling; non-aggregating conditions): inhibited
activated partial thromboplastin time (APTT) [1]: no significant effects
plasma concentration of fibrinogen [1]: no significant effects
prothrombin time (PT) [1]: no significant effects
thrombin time (TT) [1]: no significant effects
effect on platelet aggregation (human washed platelets; 25 μM luteolin, ADP (5 μM)-induced): no significant effect
effect on platelet aggregation (human washed platelets; 25 μM luteolin, U46619 (3 μM)-induced): no significant effect
effect on platelet aggregation (human washed platelets; 25 μM luteolin, thrombin (0.05 U/mL)-induced): no significant effect
effect on platelet aggregation (human washed platelets; 100 μM luteolin, U46619-induced): significantly inhibited
IC50 (human washed platelets; read-out: IC50, inhibition of platelet aggregation, convulxin (5 ng/mL)-induced): 8.66 µM
IC50 (human washed platelets; collagen (10 μg/mL)-induced, read-out: IC50, inhibition of platelet aggregation): 4.81 µM
